The target of one series is P3028 (Homo sapiens, UniProt P02768). Briefly: Chip ELISA: binding of His-tag labeled P3028 to cyclic peptides, positional scan. The protocol: In order to identify cyclic peptides that bind to P3028, all possible variants of di- and tripeptides were synthesized on chips and the binding of the His-tag labeled P 3028 was analyzed using the ELISA-technique. Based on the identified binding motifs, looped 6-meres were produced and tested. […] Positional scans were performed in each position of the lead cyclic peptide was replaced with each of the other 19 L-amino acids. Binding of each of the substituted peptides was tested, and peptide sequences with even better binding capacity than that of the lead peptide were identified.

The subject of a further series is PBMCs. In words: IL-2 induced proliferation of PBMCs, ex vivo model (3H-thymidine). It is filed as cell-based, human. The note with it: PBMCs from healthy control samples, 7 days. On the procedure: 100 μl of RPMI1640 supplemented with 200 IU/ml penicillin, […] streptomycin, 4 mM L-glutamine (all from Sigma Chemical Co. MO, US) and 20% heat-inactivated human serum (autologous or from cancer patients) were added to uncoated, HSA or HSA/IgG coated tissue culture microtiter plates. PBMC, isolated from healthy individuals or patients with metastatic renal cell carcinoma, were diluted in RPMI/2% HSA at a concentration of 5×10^5/ml and 100 μl were added to the microtiter wells. Interleukin-2 (IL-2, Proleukin, Chiron, NL), at a final concentration of 120 IU/well, was added to some wells. Cells were cultured for 7 days in a humidified, 5% CO2-atmosphere at 37° C. Proliferation was assayed by incorporation of 1.6 μCi/well of [^3H]-thymidine (Amersham Int., UK) during the last 18 hrs. Mean values of dpm (disintegrations per minute) of triplicates were used for the calculations.
Cultures for IL-2 induced proliferation was set up with PBMC from healthy donors and autologous serum as described above with the exception that PBMC were first pre-incubated for 30 min at room temperature with the indicated albumin peptides at a concentration of 10 μg/ml. […]
The effect of different peptides on IL-2 induced proliferation was analyzed in the human ex vivo model, using PBMCs from healthy control samples. […] Proliferation was measured as incorporation of ^3H-thymidine during the final 18 hours. […]

The test system of series [1] is NK-cell cytotoxicity against K562 target cells. It is filed as cell-based, human. The protocol: The ability of specific albumin fragments to impact NK-cell cytotoxicity was also evaluated. In these experiments, synthetic peptides corresponding to albumin fragments (P3028, P3026, and P3027) (SEQ ID NOs: 185, 183, and 184, respectively) were prepared and the amount of lysis of K562 target cells was assessed (see Example 4).

The subject of a further series is K562 target cells. In words: NK-cell cytotoxicity (NKTEST). To be noted: 10 ug/ml, effector:target 40:1, four donors. It is filed as cell-based, human. The protocol:
The NK-cell cytotoxic activity of blood mononuclear cells from four healthy donors was tested. Mononuclear cells were separated by standard Ficoll-paque Plus (Pharmacia AB, Sweden) density gradient centrifugation from heparinized blood obtained from healthy donors. NK cell cytotoxic activity of the mononuclear cells was then tested using a commercial kit (NKTEST, Orpegen Pharma GmblI, Heidelberg, Germany) following the manufacturers protocol. Briefly, the kit contains cryopreserved, NK-sensitive target cells (K562) labeled with a lipophilic green fluorescent membrane dye, which enables discrimination of effector and target cells. After incubation with effector cells, killed target cells are identified by a DNA-stain, which penetrates and specifically stain the nuclei of dead target cells. This way the percentage of killed targets can be determined by flow cytometry. The mononuclear cells were preincubated for 30 min at 37° C. with the indicated peptides (peptides have been described previously) at 10 ug/ml. Target cells were then added, giving an effector:target ratio of 40:1, and the cell mixture incubated at 37° C. for 3-4 hours. Samples were analysed on a FACSCalibur (BD Biosciences, San Jose, Calif.).

From US9657059B2, “Immune system modulators” (Canimguide Therapeutics AB, priority 2013, dated 2017) come the findings set out here.

No end group written: not given here.

Take CLRLNVFCG [SEQ ID NO: 265]: the “binding to P3028, positional scan” value in the series with P3028 is “highest affinity”. As to “KVPQVSTPTLVEVSR (listed as Homo sapiens) [P3029]”, the “effect on IL-2 induced proliferation” value in the series on PBMCs is recorded as “none of the other peptides identified by their binding to the artificial cell surface had any inhibitory activity”. Take ELFEQLGEYKFQNALLVR [P3027]: the “effect on NK-cell cytotoxicity” value in series [1] is on record as “Inhibition was not seen”. Besides, in the series on K562 target cells, the “effect on NK-cell cytotoxicity (percent specific lysis)” value was “Inhibition was not seen”.

CLRLIVMCG [SEQ ID NO: 266]: the “binding to P3028, positional scan” value with P3028 is “highest affinity”.
